# Experimental data from ChEMBL document CHEMBL1123974, “A comprehensive method for determining hydrophobicity constants by reversed-phase high-performance liquid chromatography” (J Med Chem, 1988).
# Key:
# [1] = octanol/water
# physchem = conditions: octanol/water
SMILES,Log k' w [1],logP (physchem)
COc1ccc(N)cc1,0.603,0.95
COc1ccc(O)cc1 [MEQUINOL],1.004,
Nc1ccc(Br)cc1 [4-BROMOANILINE],2.043,
CC12CCC(C(=O)C1=O)C2(C)C (centres undefined),1.42,1.52
Nc1cccc2ccccc12,2.203,
Oc1cccc(F)c1,1.749,
COc1ccc(CO)cc1,0.815,1.1
Cc1ccc(N)cc1,1.405,
COc1cccc(O)c1 [1-hydroxy-3-methoxybenzene],1.254,
Oc1cccc(O)c1 [RESORCINOL],0.544,
Oc1ccc(F)cc1,1.575,
O=[N+]([O-])c1ccccc1 [NITROBENZENE],1.633,
Oc1ccc(I)cc1,2.795,
COc1ccc([N+](=O)[O-])cc1,1.857,
Nc1ccc(Cl)cc1 [4-CHLOROANILINE],1.855,1.83
c1ccc2[nH]ccc2c1 [INDOLE],2.014,2.14

SMILES,Log k' w [1],logP (physchem)
Oc1cccc(Cl)c1,2.391,
Nc1cccc(F)c1,1.225,1.3
Oc1ccc(Cl)cc1 [PARACHLOROPHENOL],2.31,
COc1ccccc1 [ANISOLE],2.006,
CC(=O)c1ccccc1 [ACETOPHENONE],1.359,
CC(=O)Nc1ccc(Br)cc1,2.293,2.29
N#Cc1ccccc1 [BENZONITRILE],1.279,
N#Cc1cccc(O)c1,1.557,1.7
CCc1cccc(O)c1,2.228,2.4
Cc1ccc(O)cc1 [p-CRESOL],1.759,
O=[N+]([O-])c1ccc(Cl)cc1,2.165,2.3
Cc1ccc(C(C)C)c(O)c1 [THYMOL],3.092,
Oc1cccc(C(F)(F)F)c1,2.847,
c1ccc(/N=N/c2ccccc2)cc1 [AZOBENZENE],3.961,3.82
Oc1ccccc1 [PHENOL],1.251,
N#Cc1cccc([N+](=O)[O-])c1,1.014,1.17
